Measured values published in patent EP4467141A1, “PYRAZOLO-QUINOLINES AS SELECTIVE INHIBITORS OF GENOTOXIC STRESS-INDUCED IKK/NF- KB PATHWAYS FOR CANCER THERAPY” (Max-Delbrück-Centrum für Molekulare Medizin in der …, priority 2023, dated 2024).

Key:
Assay in all cases: Kinase panel study
Type in all cases: biochemical
Settings in all cases: read-out: Percentage of inhibition; for inhibition at 1 µM: 1000nM; for inhibition at 10 µM: 10000nM
[1] = biological target: T1, JAK2 JH1 JH2 V617F (Homo sapiens, UniProt O60674, V617F)
T1 construct: JAK2 JH1 JH2 V617F; purchased Thermo Fisher Scientific
How it was run: (§1)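 In vitro, kinase panel; ZLyte or Adapta SOP; single-concentration testing (1 or 10 µM); output = % inhibition, plus IC50 in panel.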

[2] = biological target: T2, PAK3 (Homo sapiens, UniProt O75914)
T2 construct: purchased Thermo Fisher Scientific
How it was run: as §1

[3] = biological target: T3, SYK (Homo sapiens, UniProt P43405)
T3 construct: purchased Thermo Fisher Scientific
How it was run: as §1

[4] = biological target: T4, EGFR (ErbB1) T790M (Homo sapiens, UniProt P00533, T790M)
T4 construct: purchased Thermo Fisher Scientific
How it was run: as §1

[5] = biological target: T5, PRKCB2 (PKC beta II) (Homo sapiens, UniProt P05771)
T5 construct: purchased Thermo Fisher Scientific
How it was run: as §1

[6] = biological target: T6, DYRK4 (Homo sapiens, UniProt Q9NR20)
T6 construct: purchased Thermo Fisher Scientific
T6 sequence (Q9NR20 1-520): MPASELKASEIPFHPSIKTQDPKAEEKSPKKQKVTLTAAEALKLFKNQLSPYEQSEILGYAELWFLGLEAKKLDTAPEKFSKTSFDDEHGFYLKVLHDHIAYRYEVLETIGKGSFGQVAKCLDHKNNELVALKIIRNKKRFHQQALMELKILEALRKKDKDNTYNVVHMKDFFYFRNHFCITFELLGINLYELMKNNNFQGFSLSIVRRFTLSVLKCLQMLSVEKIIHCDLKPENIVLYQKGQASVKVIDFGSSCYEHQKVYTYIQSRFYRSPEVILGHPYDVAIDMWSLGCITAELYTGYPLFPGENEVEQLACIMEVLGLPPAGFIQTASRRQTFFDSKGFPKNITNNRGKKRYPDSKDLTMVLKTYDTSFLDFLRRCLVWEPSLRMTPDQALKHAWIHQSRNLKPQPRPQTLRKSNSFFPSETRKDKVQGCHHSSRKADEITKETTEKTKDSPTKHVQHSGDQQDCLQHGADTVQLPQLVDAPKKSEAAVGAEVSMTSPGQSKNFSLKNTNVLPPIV
How it was run: as §1

[7] = biological target: T7, CSNK1E (CK1 epsilon) R178C (Homo sapiens, UniProt P49674, R178C)
T7 construct: purchased Thermo Fisher Scientific
T7 sequence (P49674 1-416 R178C): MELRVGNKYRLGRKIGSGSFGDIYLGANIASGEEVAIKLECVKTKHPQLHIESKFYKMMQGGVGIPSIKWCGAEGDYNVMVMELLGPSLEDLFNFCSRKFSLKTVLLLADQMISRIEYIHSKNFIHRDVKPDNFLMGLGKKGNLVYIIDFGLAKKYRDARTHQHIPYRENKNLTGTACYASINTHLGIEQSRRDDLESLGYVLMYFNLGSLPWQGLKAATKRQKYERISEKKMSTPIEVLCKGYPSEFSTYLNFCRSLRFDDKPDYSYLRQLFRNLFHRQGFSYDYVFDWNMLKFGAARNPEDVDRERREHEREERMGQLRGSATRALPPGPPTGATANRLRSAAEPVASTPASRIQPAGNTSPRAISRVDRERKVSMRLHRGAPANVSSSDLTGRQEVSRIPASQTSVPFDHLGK
How it was run: as §1

T1 sequence (O60674 532-1132 V617F limits assumed): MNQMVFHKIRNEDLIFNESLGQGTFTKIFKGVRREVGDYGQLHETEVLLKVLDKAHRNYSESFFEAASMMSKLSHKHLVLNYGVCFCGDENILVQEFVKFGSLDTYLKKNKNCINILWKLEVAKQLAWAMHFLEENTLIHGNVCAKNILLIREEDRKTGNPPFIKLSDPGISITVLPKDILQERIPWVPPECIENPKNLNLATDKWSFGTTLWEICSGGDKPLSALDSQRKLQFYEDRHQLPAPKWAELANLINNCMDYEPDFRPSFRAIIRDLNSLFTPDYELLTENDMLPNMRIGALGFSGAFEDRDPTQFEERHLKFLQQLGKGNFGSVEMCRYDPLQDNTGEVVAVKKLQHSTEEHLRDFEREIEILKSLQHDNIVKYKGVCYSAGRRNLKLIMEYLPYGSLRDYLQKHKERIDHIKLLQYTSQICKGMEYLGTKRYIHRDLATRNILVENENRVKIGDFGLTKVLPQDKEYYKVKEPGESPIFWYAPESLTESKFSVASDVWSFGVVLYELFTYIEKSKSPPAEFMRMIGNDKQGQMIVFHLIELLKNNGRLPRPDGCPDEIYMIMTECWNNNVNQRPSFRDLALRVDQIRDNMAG
T5 sequence (P05771 1-673 isoform P05771-2): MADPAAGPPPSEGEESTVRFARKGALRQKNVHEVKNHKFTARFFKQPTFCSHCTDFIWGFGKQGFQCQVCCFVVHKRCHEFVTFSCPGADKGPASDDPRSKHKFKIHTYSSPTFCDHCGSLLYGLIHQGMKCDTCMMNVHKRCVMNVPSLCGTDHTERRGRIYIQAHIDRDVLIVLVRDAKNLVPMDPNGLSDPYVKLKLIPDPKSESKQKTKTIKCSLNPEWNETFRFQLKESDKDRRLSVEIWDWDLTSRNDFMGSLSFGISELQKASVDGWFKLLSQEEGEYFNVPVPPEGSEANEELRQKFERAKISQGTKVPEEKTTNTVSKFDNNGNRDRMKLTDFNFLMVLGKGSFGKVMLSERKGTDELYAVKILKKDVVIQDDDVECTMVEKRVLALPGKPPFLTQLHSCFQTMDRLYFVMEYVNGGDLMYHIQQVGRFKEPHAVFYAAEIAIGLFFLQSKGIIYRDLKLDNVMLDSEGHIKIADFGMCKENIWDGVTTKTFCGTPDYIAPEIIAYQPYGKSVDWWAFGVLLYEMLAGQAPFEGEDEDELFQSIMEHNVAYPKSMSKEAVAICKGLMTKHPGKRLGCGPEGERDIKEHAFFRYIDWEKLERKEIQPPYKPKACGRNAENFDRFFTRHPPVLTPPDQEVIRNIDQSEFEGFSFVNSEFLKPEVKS
T4 sequence (P00533 25-1210 T790M): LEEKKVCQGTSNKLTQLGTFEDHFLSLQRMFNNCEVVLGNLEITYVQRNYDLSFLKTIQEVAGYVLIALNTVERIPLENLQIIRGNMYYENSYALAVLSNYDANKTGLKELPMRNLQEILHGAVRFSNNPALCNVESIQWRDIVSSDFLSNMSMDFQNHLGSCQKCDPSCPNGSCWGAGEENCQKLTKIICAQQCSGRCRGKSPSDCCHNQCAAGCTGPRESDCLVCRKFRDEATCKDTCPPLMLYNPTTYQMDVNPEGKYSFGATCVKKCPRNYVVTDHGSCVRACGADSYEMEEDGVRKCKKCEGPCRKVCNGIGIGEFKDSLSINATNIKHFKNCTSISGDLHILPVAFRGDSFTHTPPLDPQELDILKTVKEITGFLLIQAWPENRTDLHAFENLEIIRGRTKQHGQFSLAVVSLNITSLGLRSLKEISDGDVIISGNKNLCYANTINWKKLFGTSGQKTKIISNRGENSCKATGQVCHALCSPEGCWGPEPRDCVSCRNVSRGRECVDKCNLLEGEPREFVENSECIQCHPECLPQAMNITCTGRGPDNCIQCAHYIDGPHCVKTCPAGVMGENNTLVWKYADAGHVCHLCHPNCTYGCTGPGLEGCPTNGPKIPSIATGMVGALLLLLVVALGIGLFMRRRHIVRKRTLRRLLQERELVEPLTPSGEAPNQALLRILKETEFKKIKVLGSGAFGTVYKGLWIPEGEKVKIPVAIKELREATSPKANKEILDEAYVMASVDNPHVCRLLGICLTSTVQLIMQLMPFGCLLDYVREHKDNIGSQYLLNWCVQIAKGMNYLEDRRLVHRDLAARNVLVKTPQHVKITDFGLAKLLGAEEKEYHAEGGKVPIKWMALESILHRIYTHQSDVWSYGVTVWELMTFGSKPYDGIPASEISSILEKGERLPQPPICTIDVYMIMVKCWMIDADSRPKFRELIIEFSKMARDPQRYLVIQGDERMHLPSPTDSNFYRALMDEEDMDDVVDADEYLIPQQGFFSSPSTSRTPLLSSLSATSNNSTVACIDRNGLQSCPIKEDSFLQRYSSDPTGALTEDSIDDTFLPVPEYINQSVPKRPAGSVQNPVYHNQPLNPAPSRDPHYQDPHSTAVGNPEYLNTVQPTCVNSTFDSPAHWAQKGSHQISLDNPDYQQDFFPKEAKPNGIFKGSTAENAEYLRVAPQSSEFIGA
T2 sequence (O75914 whole entry): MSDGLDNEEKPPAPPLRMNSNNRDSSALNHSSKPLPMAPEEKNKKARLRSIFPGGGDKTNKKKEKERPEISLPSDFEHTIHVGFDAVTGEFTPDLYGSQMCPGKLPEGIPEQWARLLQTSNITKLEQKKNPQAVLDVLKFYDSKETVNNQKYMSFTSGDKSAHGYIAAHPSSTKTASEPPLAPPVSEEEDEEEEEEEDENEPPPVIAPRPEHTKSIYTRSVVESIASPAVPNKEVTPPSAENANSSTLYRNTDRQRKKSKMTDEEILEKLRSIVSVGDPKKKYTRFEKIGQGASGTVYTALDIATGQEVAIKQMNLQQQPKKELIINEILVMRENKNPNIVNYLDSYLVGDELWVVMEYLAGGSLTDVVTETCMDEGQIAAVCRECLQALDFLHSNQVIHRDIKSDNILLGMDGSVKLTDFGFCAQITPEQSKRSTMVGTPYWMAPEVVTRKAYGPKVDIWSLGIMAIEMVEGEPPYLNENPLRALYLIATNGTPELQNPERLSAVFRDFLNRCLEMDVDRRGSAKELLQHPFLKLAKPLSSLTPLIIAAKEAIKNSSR

| SMILES | inhibition at 1 µM [1] [%] | inhibition at 10 µM [1] [%] | inhibition at 1 µM [2] [%] | inhibition at 10 µM [2] [%] | inhibition at 1 µM [3] [%] | inhibition at 10 µM [3] [%] | inhibition at 1 µM [4] [%] | inhibition at 10 µM [4] [%] | inhibition at 1 µM [5] [%] | inhibition at 10 µM [5] [%] | inhibition at 1 µM [6] [%] | inhibition at 10 µM [6] [%] | inhibition at 1 µM [7] [%] | inhibition at 10 µM [7] [%] |
| --- | --- | --- | --- | --- | --- | --- | --- | --- | --- | --- | --- | --- | --- | --- |
| COc1ccc2c(c1OC)c(=O)n1c3ccc(O)cc3c3ccnc2c31 [MW01, 5-Hydroxy-10,11-dimethoxy-9H-benzo[c]indolo[3,2,1-ij][1,5]naphthyridin-9-one] | 15 | 29 | 10 | 15 | 16 | 37 | 8 | 19 | 11 | 14 | -2 | 0 | 23 | 64 |
| COc1ccc2cc3c(N)nn(C(=O)c4cccc(N(C)C)c4)c3nc2c1 [MW05, (3-Amino-7-methoxypyrazolo[3,4-b]quinolin-1-yl)-[3-(dimethylamino)phenyl]methanone] | 1 | -28 | 26 | 15 | 5 | 7 | 4 | 0 | 9 | -5 | 4 | 4 | 0 | 6 |
